Where a name gives a salt, the structure may show the parent alone.
These compounds were tested against T1, renin (Homo sapiens, UniProt P00797) (assay: in vitro renin inhibitory activity, standard radioimmunoassay for angiotensin I).
T1 sequence (P00797 67-406): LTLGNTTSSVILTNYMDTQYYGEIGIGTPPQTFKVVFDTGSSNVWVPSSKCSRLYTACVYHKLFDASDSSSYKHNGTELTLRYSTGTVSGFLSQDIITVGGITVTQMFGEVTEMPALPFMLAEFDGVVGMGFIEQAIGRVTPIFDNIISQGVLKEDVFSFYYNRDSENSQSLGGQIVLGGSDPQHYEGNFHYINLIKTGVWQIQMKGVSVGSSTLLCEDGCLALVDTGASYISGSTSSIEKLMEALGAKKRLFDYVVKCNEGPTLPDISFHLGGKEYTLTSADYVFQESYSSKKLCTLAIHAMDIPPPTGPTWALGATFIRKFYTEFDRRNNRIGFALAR
Assay type: biochemical
Procedure: The effectiveness of the aforementioned compounds is determined by a test for in vitro renin inhibitory activity. This activity is determined by a standard radioimmunoassay for angiotensin I. In this assay the enzyme, renin, incubated for two hours at 37° in the presence of a substrate, angiotensinogen, generates the product, angiotensin I. Test compounds are added to the incubation mixture.

SMILES	IC50
CC(C)CC(=O)N[C@H](CN[C@H](C(=O)N[C@@H](CC(C)C)[C@@H](O)CC(=O)N[C@@H](C)C(=O)N[C@@H](CC(C)C)[C@@H](O)CC(=O)NCc1ccccc1)C(C)C)C(C)C (relative stereo) [Example 52, 5,8,11,16,19-pentaazatricosan-23-amide, 13,2-dihydroxy-2,17-dimethyl-6,9-bis(1-methylethyl)-12,20-bis(2-methylpropyl)-4,10,15,18-tetraoxo-N-(phenylmethyl)-,:6S-(6R*,9R*,12R*,13R*,17R*,20R*,21R*):-,acetate (salt) (2:3)]	18 µM
CC(C)CC(NC(=O)CC(O)C(CC(C)C)NC(=O)CC(O)C(O)C(CC1CCCCC1)NC(=O)OC(C)(C)C)C(=O)NCc1ccccc1 (single isomer, unassigned) [Example 17, 15-(cyclohexylmethyl)-8,13,14-trihydroxy-4,9-bis(2-methylpropyl)-3,6,11-trioxo-1-phenyl-2,5,10,16-tetraazaheptadecan-17-oic acid, 1,1-dimethylethyl ester]	6.5 µM
CC(C)C[C@H](NC(=O)C[C@H](O)[C@H](CC(C)C)NC(=O)C(Cc1c[nH]cn1)CC(O)[C@H](Cc1ccccc1)NC(=O)OC(C)(C)C)C(=O)NCc1ccccc1 (single isomer, unassigned) [Example 30, BOC-PHE[CHOHCH2 ]HIS-STA-LEU-NHCH2 Ph]	30 µM
CC(C)CC(=O)N[C@@H](CC(C)C)C(=O)CC(Cc1ccccc1)C(=O)N[C@@H](CC(C)C)[C@@H](O)CC(=O)N[C@@H](CC(C)C)C(=O)NCc1ccccc1 (single isomer, unassigned) [Example 32]	7.1 µM
CC(C)C[C@H](NC(=O)C/C=C/[C@H](Cc1ccccc1)NC(=O)OC(C)(C)C)[C@@H](O)CC(=O)N[C@@H](C)C(=O)N[C@@H](CC(C)C)[C@@H](O)CC(=O)NCc1ccccc1 [Example 1, [5S-[5R*,6R*,9R*,13R*,14R*(E),20R*]]-5,13-dihydroxy-9-methyl-6,14-bis(2-methylpropyl)-3,8,11,16-tetraoxo-1-phenyl-20-(phenylmethyl)-2,7,10,15,21-pentaazadocos-18-en-22-oic acid, 1,1-dimethylethyl ester]	8.2 µM
CC(C)C[C@H](NC(=O)C(/C=C/[C@H](Cc1ccccc1)NC(=O)OC(C)(C)C)Cc1ccccc1)[C@@H](O)CC(=O)N[C@@H](C)C(=O)N[C@@H](CC(C)C)[C@@H](O)CC(=O)NCc1ccccc1 (some centres unmarked) [Example 2, (E)-5,13-dihydroxy-9-methyl-6,14-bis(2-methylpropyl)-3,8,11,16-tetraoxo-1-phenyl-17,20-bis(phenylmethyl)-2,7,10,15,21-pentaazadocos-18-en-22-oic acid, 1,1-dimethylethyl ester]	12 µM
CC(C)C[C@H](NC(=O)C[C@H](O)[C@H](CC(C)C)NC(=O)C/C=C/[C@H](Cc1c[nH]c2ccccc12)NC(=O)OC(C)(C)C)C(=O)NCc1ccccc1 [Example 7, [4S-(4R*,8R*,9R*,13E,15R*)]-8-hydroxy-15-(1H-indol-3-ylmethyl)-4,9-bis(2-methylpropyl)-3,6,11-trioxo-1-phenyl-2,5,10-16-tetraazaheptadec-13-en-17-oic acid, 1,1-dimethylethyl ester]	20 µM
CC(C)C[C@H](NC(=O)C[C@H](O)[C@H](CC1CCCCC1)NC(=O)C/C=C/[C@H](Cc1ccccc1)NC(=O)OC(C)(C)C)C(=O)NCc1cccc(CNC(=O)OCc2ccccc2)c1 [Example 8]	8 µM
CC(C)C[C@H](NC(=O)C[C@H](O)[C@H](CC1CCCCC1)NC(=O)CC1OC1[C@H](Cc1ccccc1)NC(=O)OC(C)(C)C)C(=O)NCc1cccc(CNC(=O)OCc2ccccc2)c1 (some centres unmarked) [Example 13]	2.6 µM
CC(C)CC(NC(=O)CC(O)C(CC(C)C)NC(=O)CC(O)C(O)C(Cc1c[nH]c2ccccc12)NC(=O)OC(C)(C)C)C(=O)NCc1ccccc1 (centres unmarked) [Example 18, 8,13,14-trihydroxy-15-(1H-indol-3-ylmethyl)-4,9-bis-(2-methylpropyl)-3,6,11-trioxo-1-phenyl-2,5,10,16-tetraazaheptadecan-17-oic acid, 1,1-dimethylethyl ester]	2.3 µM
CC(C)CC(NC(=O)CC(O)C(CC(C)C)NC(=O)/C=C/C(O)C(Cc1ccccc1)NC(=O)OC(C)(C)C)C(=O)NCc1ccccc1 (centres unmarked) [Example 19, (E)-8,14-dihydroxy-4,9-bis(2-methylpropyl)-3,6,11-trioxo-1-phenyl-15-(phenylmethyl)-2,5,10,16-tetraazaheptadec-12-en-17-oic acid, 1,1-dimethylethyl ester]	2.1 µM
CC(C)C[C@H](NC(=O)C[C@H](O)[C@H](CC1CCCCC1)NC(=O)/C=C/C(O)[C@H](Cc1ccccc1)NC(=O)OC(C)(C)C)C(=O)NCc1cccc(CNC(=O)OCc2ccccc2)c1 (some centres unmarked) [Example 21]	0.47 µM
CC(C)C[C@H](NC(=O)C[C@H](O)[C@H](CC1CCCCC1)NC(=O)CCC(O)[C@H](Cc1ccccc1)NC(=O)OC(C)(C)C)C(=O)NCc1cccc(CN)c1 (some centres unmarked) [Example 24]	0.022 µM
CC(C)CC(=O)N[C@@H](Cc1ccccc1)C(=O)N[C@@H](Cc1c[nH]cn1)C(=O)N[C@@H](CC1CCCCC1)C(O)CCC(=O)NCc1ccccc1 (stereo partly drawn) [Example 27, L-histidinamide,N-(3-methyl-1-oxobutyl)-L-phenylalanyl-N-[1-(cyclohexylmethyl)-2-hydroxy-5-oxo-5-[(phenylmethyl)amino]pentyl]]	0.25 µM
CC(C)CC(=O)N[C@@H](Cc1ccccc1)C(=O)N[C@@H](Cc1c[nH]cn1)C(=O)N[C@@H](CC1CCCCC1)C(O)CCC(=O)N[C@@H](CC(C)C)C(=O)NCc1ccccc1 (some centres unmarked) [Example 28]	0.014 µM
CC(C)C[C@H](NC(=O)C[C@H](O)[C@H](CC1CCCCC1)NC(=O)CCC[C@H](Cc1ccccc1)NC(=O)OC(C)(C)C)C(=O)NCc1cccc(CN)c1 [Example 36]	63 µM
CC(C)CC(=O)NC(Cc1ccccc1)CS(=O)(=O)C(Cc1ccccc1)C(=O)NC(CC(C)C)C(O)CC(=O)NC(C)C(=O)NC(CC(C)C)C(O)CC(=O)NCc1ccccc1 (centres unmarked) [Example 38, 13,21-dihydroxy-2,17-dimethyl-12,20-bis(2-methylpropyl)-4,10,15,18-tetraoxo-N,6,9-tris(phenylmethyl)-8-thia-5,11,16,19-tetraazatricosan-23-amide-8,8-dioxide]	1.5 µM
CC(C)CC(=O)NC(CSC(Cc1ccccc1)C(=O)NC(CC(C)C)C(O)CC(=O)NC(CC(C)C)C(=O)NCc1ccccc1)Cc1ccccc1 (centres unmarked) [Example 39, 6-hydroxy-17-methyl-2,7-bis(2-methylpropyl)-4,9,15-trioxo-N,10,13-tris(phenylmethyl)-11-thia-3,8,14-triazaoctadecanamide]	30 µM
CC(C)CC(=O)NC(Cc1ccccc1)C[S+]([O-])C(Cc1ccccc1)C(=O)NC(CC(C)C)C(O)CC(=O)NC(C)C(=O)NC(CC(C)C)C(O)CC(=O)NCc1ccccc1 (centres unmarked) [Example 40, 13,21-dihydroxy-2,17-dimethyl-12,20-bis(2-methylpropyl)-4,10,15,18-tetraoxo-N,6,9-tris(phenylmethyl)-8-thia-5,11,16,19-tetraazatricosan-23-amide-8-oxide]	2 µM
CC(C)CC(NC(=O)CC(O)C(CC(C)C)NC(=O)C(Cc1ccccc1)SCC(Cc1ccccc1)NC(=O)CCCC(=O)O)C(=O)NCc1ccccc1 (centres unmarked) [Example 44, 8-hydroxy-4,9-bis(2-methylpropyl)-3,6,11,17-tetraoxo-1-phenyl-12,15-bis(phenylmethyl)-13-thia-2,5,10,16-tetraazaheneicosan-21-oic acid]	30 µM
CC(C)CC(=O)NC(CCCC(=O)NC(CC(C)C)C(O)CC(=O)NC(CC(C)C)C(=O)NCc1ccccc1)Cc1ccccc1 (centres unmarked) [Example 47, N-[2-hydroxy-4-[[3-methyl-1-[[(phenylmethyl)amino]carbonyl]butyl]amino]-1-(2-methylpropyl)-4-oxobutyl]-δ-[(3-methyl-1-oxobutyl)amino]benzenehexanamide]	26 µM
CC(C)CC(NC(=O)CCC(=O)C(Cc1ccccc1)NC(=O)c1ccccc1)C(O)CC(=O)NC(C)C(=O)NC(CC(C)C)C(O)CC(=O)NCc1ccccc1 (centres unmarked) [Example 48]	30 µM
CC(C)C[C@H](NC(=O)CCC(=O)C(Cc1ccccc1)NC(=O)OC(C)(C)C)[C@@H](O)CC(=O)N[C@@H](C)C(=O)N[C@@H](CC(C)C)[C@@H](O)CC(=O)NCc1ccccc1 (stereo partly drawn) [Example 50, 5,13-dihydroxy-9-methyl-6,14-bis(2-methylpropyl)-3,8,11,16,19-pentaoxo-1-phenyl-20-(phenylmethyl)-2,7,10,15,21-pentaazadocosan-22-oic acid, 1,1-dimethylethyl ester; (5S,7S,13S,14S,20RS)]	30 µM
CC(C)CC(CC(=O)[C@H](CC1CCCCC1)NC(=O)OC(C)(C)C)C(=O)N[C@@H](CC(C)C)[C@@H](O)CC(=O)N[C@@H](CC(C)C)C(=O)NCc1ccccc1 (some centres unmarked) [Example 51]	26 µM
CCOC(=O)C[C@H](O)[C@H](CC(C)C)NC(=O)[C@@H](NC[C@@H](NC(=O)CC(C)C)C(C)C)C(C)C [Example 53, Heptanoic acid, 3-hydroxy-6-methyl-4-[[3-methyl-2-[[3-methyl-2-[(3-methyl-1-oxobutyl)amino]butyl]amino]-1-oxobutyl]amino]-, ethyl ester, [3S-[3R*,- 4R*[R*[R*[(R*)]]]]-]	28 µM
CC(C)CC(=O)N[C@H](CN[C@H](C(=O)N[C@@H](CC(C)C)[C@@H](O)CC(=O)NCc1ccccc1)C(C)C)C(C)C [Example 54, IVA-VAL[CH2 NH]VAL-STA-NHCH2 Ph]	30 µM

From patent US4743585A (Warner-Lambert Company, priority 1986, dated 1988)
